From publication PMC10089971 (British journal of pharmacology, 2023)
“Also recorded” adds a separate entry of the source. Structures can show the parent of a compound that is named as a salt.

Columns and labels:
[1] = system: MC38 colon adenocarcinoma cells; conditions: mouse, in vivo
intestinal organoids = test: Intestinal organoids treated with CPT-11 with or without morphine; conditions: CPT-11 in the presence or absence of morphine
[2] = Analgesic efficacy of morphine with CPT-11; assay type: in vivo; conditions: CPT-11 co-administration
[3] = system: MC38 colon adenocarcinoma cells; test: MC38 subcutaneous tumor model, anti-tumor efficacy of CPT-11; conditions: MC38 s.c. tumors; compared with saline controls
carboxylesterase (CES) = conditions: ref Quinney et al., 2005; cited from earlier work
C57BL/6 mice [4] = test: CPT-11-induced GI toxicity in mice; conditions: for CPT-11-induced tissue damage in the ileum (histological score): co-administered with CPT-11 75 mg/kg, compared with CPT-11 alone
C57BL/6 mice [5] = test: Intestinal transit time with 70-kDa FITC-dextran; assay type: in vivo; conditions: compared to saline-treated mice

In the case of CCc1c2c(nc3ccc(OC(=O)N4CCC(N5CCCCC5)CC4)cc13)-c1cc3c(c(=O)n1C2)COC(=O)[C@]3(O)CC [CPT-11, Irinotecan hydrochloride], the “body weight loss in tumor-bearing mice” value [1] is reported as “induced weight loss”, the “growth of intestinal organoids” value (intestinal organoids) is reported as “inhibited the growth of crypt stem cells” and the “analgesic efficacy of morphine” value [2] is reported as “didn’t affect the analgesic efficacy of morphine”. The “reduction of tumor sizes” value [3] was 41.6%.

In the case of CN(C)C(=O)C(CCN1CCC(O)(c2ccc(Cl)cc2)CC1)(c1ccccc1)c1ccccc1 [loperamide, Loperamide], the carboxylesterase inhibition (carboxylesterase (CES)) is given as “inhibitor of carboxylesterase (CES)”, the “CPT-11-induced tissue damage in the ileum (histological score)” value (C57BL/6 mice [4]) is given as “did not significantly exacerbate small intestinal tissue damage” and the weight loss (C57BL/6 mice [4]; oral loperamide + CPT-11 vs CPT-11) is given as “did not significantly exacerbate”.

With CCOc1ccc(NC(=S)N(CCO)Cc2cc3cc(C)cc(C)c3[nH]c2=O)cc1 [Inh-1, 1-((6,8-Dimethyl-2-oxo-1,2-dihydroquinolin-3-yl)methyl)-3-(4-ethoxyphenyl)-1-(2-hydroxyethyl)thiourea] the “intestinal epithelial damage (ileal histology)” value (C57BL/6 mice [4]; Inh-1 in morphine + CPT-11-treated mice) was “rescued the intestinal epithelial damage observed with morphine and CPT-11”.

In the case of CN1CC[C@]23c4c5ccc(O)c4O[C@H]2[C@@H](O)C=C[C@H]3[C@H]1C5 [morphine, Morphine sulfate], the “growth of intestinal organoids” value (intestinal organoids) is reported as “did not show any direct effects on CPT-11-treated organoids”, the gut transit time (C57BL/6 mice [5]) is reported as “significantly prolonged gut transit time” and the “CPT-11-induced tissue damage in the large intestine” value (C57BL/6 mice [4]; co-administered with CPT-11) is reported as “showed no effects on CPT-11-induced tissue damage”. For the same compound, the “CPT-11-induced tissue damage in the ileum (histological score)” value (C57BL/6 mice [4]) was “potentiated CPT-11-induced tissue damage in the ileum; also recorded: significantly potentiated CPT-11-induced tissue damage in the small intestines”.

With Clc1cccc(Cl)c1N=C1NCCN1 [clonidine, Clonidine hydrochloride] the gut transit time (C57BL/6 mice [5]) was “significantly prolonged gut transit time”.
